Results: ChEMBL document CHEMBL3832761, “MMV Pathogen Box Bioactivity Data” (2017)

Key:
HepG2 [1] = test: HepG2 inhibition at 10 uM (%) Cytotoxicity; assay type: functional; settings: Homo sapiens
Plasmodium falciparum [2] = test: Antimalarial activity: Asexual Blood Stage Plasmodium falciparum W2 IC50 (uM); assay type: functional, organism-based
Plasmodium berghei = test: Antimalarial activity: Liver Stage Plasmodium berghei sporozoite Luciferase assay: inhibition at 10 uM (%); assay type: functional
Plasmodium falciparum [3] = test: Antimalarial activity: Asexual Blood Stage Plasmodium falciparum 3D7 IC50 (uM); assay type: functional, organism-based
Plasmodium falciparum [4] = test: Antimalarial activity: Asexual Blood Stage Plasmodium falciparum Dd2 IC50 (uM); assay type: functional, organism-based
Plasmodium falciparum [5] = test: Antimalarial activity: Gametocytes Plasmodium falciparum NF54 Gametocytes Stage V: inhibition at 10 uM (%); assay type: functional
HepG2 [6] = test: Cytotoxicity data HepG2 CC20 (uM); assay type: functional
MRC5 = test: MRC5 CC50 (uM) Cytotoxicity; assay type: functional; settings: Homo sapiens

| IC50 (Plasmodium falciparum [2]) [nM] | IC50 (Plasmodium falciparum [3]) [nM] | IC50 (Plasmodium falciparum [4]) [nM] | Compound | inhibition at 10 µM (HepG2 [1]) [%] | Inhibition (Plasmodium berghei) [%] | Inhibition (Plasmodium falciparum [5]) [%] | CC20 (HepG2 [6]) [µM] | inhibition (Plasmodium berghei) | inhibition (Plasmodium falciparum [5]) | CC50 (MRC5) [µM] |
| --- | --- | --- | --- | --- | --- | --- | --- | --- | --- | --- |
| 4470 | 1200 | 3050 | COc1ccc(CCN2CCC(NCc3cccc(N(C)C)c3)CC2)cc1 | 6 | 67 | 4.11 | – | – | – | – |
| 940 | 900 | 940 | CCn1cnc2c(Nc3cc(F)cc(F)c3)nc(C#N)nc21 | 5 | 0 | 3 | – | – | – | – |
| 970 | 1110 | 850 | CNC(=O)c1cc(S(=O)(=O)N2CCN(c3ccccn3)CC2)cs1 | 6 | 9 | 34 | >80 | – | – | – |
| 2250 | 350 | 4100 | CC(C)NCC(=O)Nc1cccc(C(=O)Nc2cccc(C(F)(F)F)c2)c1 | 0 | 47 | 40 | 11.5 | – | – | – |
| – | 100 | – | Cc1ccc(-c2cc(C(=O)Nc3cccnc3)c3cc(Br)ccc3n2)cc1 | – | – | – | – | Series known to be active | Series known to be active | 20 |
| 1250 | 1200 | 760 | O=S(=O)(c1ccc(Cl)cc1)N1CCN(C(=S)NCc2ccco2)CC1 | 0 | 23 | 32 | 28.3 | – | – | – |
| 580 | 540 | 1880 | O=C(Nc1cnc2ccccc2c1)c1cccc(-n2cnnn2)c1 | 0 | 0 | 1 | >80 | – | – | – |
| – | 100 | – | O=C(NCCN1CCCC1)c1cc(NCCN2CCOCC2)nc2ccc(Cl)cc12 | – | – | – | – | Series known to be active | Series known to be active | 33.5 |
| 660 | 840 | 1000 | CC(C)c1ncc(-c2ccncc2)c([C@H]2CC[C@H](CNC(=O)c3cccnc3)CC2)n1 | 0 | 0 | 3 | >80 | – | – | – |
| 160 | 300 | 210 | Cc1cc(Cl)c(S(=O)(=O)N2CCCC2)cc1OCC(=O)NC1CCCCC1 | 32 | 81 | 0 | – | – | – | – |
| 790 | 930 | 640 | CC(C)C(C(=O)Nc1ccc(S(=O)(=O)N(C)C)cc1)c1ccc(Cl)cc1 (centres undefined) | 17 | 66 | 31 | 5.35 | – | – | – |
| 2450 | 610 | 1600 | c1ccc2c(c1)CN(CC1CC1)CC1(CCN(Cc3c[nH]c4cnccc34)CC1)O2 | 35 | 89 | 8.4 | – | – | – | – |
| 2260 | 660 | 1630 | O=C(c1ccc(NCCO)cc1)C1C[C@H]1c1ccc(Cl)cc1 (some centres undefined) | 5 | 44 | 20 | 12.8 | – | – | – |
| 2090 | 1970 | 1990 | CCc1cc(=O)n(C)c(SC(C)C(=O)Nc2ccc(F)cc2)n1 (centres undefined) | 25 | 47 | 0 | – | – | – | – |
| 1400 | 1380 | 2820 | COc1ccccc1C(C)NCC(=O)Nc1cc(C(F)(F)F)ccc1Cl (centres undefined) | 13 | 55 | 1 | 33.7 | – | – | – |
| 2400 | 1500 | 2240 | Nc1ncc(Br)cc1-c1nc2cc(Cl)cnc2[nH]1 | 42 | 89 | 0 | – | – | – | – |

| IC50 (Plasmodium falciparum [2]) [nM] | IC50 (Plasmodium falciparum [3]) [nM] | IC50 (Plasmodium falciparum [4]) [nM] | Compound | inhibition at 10 µM (HepG2 [1]) [%] | Inhibition (Plasmodium berghei) [%] | Inhibition (Plasmodium falciparum [5]) [%] | CC20 (HepG2 [6]) [µM] | inhibition (Plasmodium berghei) | inhibition (Plasmodium falciparum [5]) | CC50 (MRC5) [µM] |
| --- | --- | --- | --- | --- | --- | --- | --- | --- | --- | --- |
| 990 | 1660 | 2320 | Cc1ccc2cc(C3NC(=O)c4ccccc4N3)c(Cl)nc2c1 (centres undefined) | 2 | 37 | 0 | >80 | – | – | – |
| 2380 | 1400 | – | Cc1cc(NCC(C)C)c2[nH]nc(-c3ccccc3)c2n1 | 9 | – | – | – | – | – | – |
| 4000 | 790 | 1310 | Cc1ccc2[nH]c3c(NCCN(C)C)ncnc3c2c1 | 4 | 0 | 21 | – | – | – | – |
| 2170 | 900 | 1330 | CC(C(=O)N1CCCC1)N1CCN(S(=O)(=O)c2ccc(C(C)(C)C)cc2)CC1 (centres undefined) | 0 | 18 | 1 | >80 | – | – | – |
| 1560 | 620 | 970 | COc1cc2ncnc(NC3CCN(Cc4ccccc4)CC3)c2cc1OC | 36 | 46 | 3 | – | – | – | – |
| 1020 | 580 | 3260 | COc1cc(OC)cc(C(=O)NCC2Cc3cc(Cl)cc(-c4ccncc4)c3O2)c1 (centres undefined) | 9 | 52 | 12.1 | – | – | – | – |
| 1100 | 1270 | 2720 | CCOc1ccccc1C(=O)Nc1cccc(-c2nc3ncccn3c2C)c1 | 4 | 94 | 42.5 | – | – | – | – |
| 370 | 290 | 260 | CC1(C)Cc2c(c(N3CCOCC3)nc3snc(Br)c23)CO1 | 4 | 4 | 1 | – | – | – | – |
| 1870 | 780 | 2460 | Cc1cc(C)n(-c2ccc(NC(=O)C3CCN(Cc4cnc(C)s4)CC3)cc2)n1 | 18 | 38 | 0 | – | – | – | – |
| 690 | 980 | 1360 | Cc1cc(NC(=O)c2ccc(S(=O)(=O)N(Cc3ccccc3)C(C)C)cc2)no1 | 13 | 72 | 12.9 | – | – | – | – |
| 470 | 270 | 200 | FC(F)(F)c1cnc(Sc2nnc(-c3ccncc3)o2)c(Cl)c1 | 28 | 75 | 0 | – | – | – | – |
| – | > 2000 | 2000 | O=C(C(Cc1c[nH]c2ccccc12)NS(=O)(=O)c1ccc(Cl)cc1)N1CCCCC1 (centres undefined) | 9 | 0 | 23 | 21.9 | – | – | – |
| 260 | 120 | 200 | Cc1nn(C)cc1C(C)Nc1nncc(-c2ccc(C(F)(F)F)cc2)n1 (centres undefined) | 19 | 45 | 0 | – | – | – | – |
| 880 | 520 | 1320 | CC1CCCN(C(=O)C(C)Nc2cc(Cl)ccc2N2CCOCC2)C1 (centres undefined) | 13 | 46 | 9.53 | – | – | – | – |
| – | 1420 | > 2000 | O=C(NC1CC1)c1ccc(CSCc2ccccc2Cl)o1 | 33 | 96 | 14.9 | – | – | – | – |
| 1720 | 1080 | 1350 | COc1ccc(-c2cncc3ccc(C(=O)NCCCn4ccnc4)nc23)cc1 | 47 | 98 | 71.3 | – | – | – | – |
